“Also recorded” adds a separate entry of the source.

For assay [1], the system named is p120 and p100. The assay can be described thus: p120/p100 band shift (mobility shift) by SDS-PAGE and immunoblotting in HUVEC. Format: cell-based, Human. The following applies: for p120/p100 electrophoretic mobility (band shift): 10 μM histamine, 200 nM PDB. The protocol: (§1) Human umbilical vein endothelial cells (HUVEC), pooled donors, were from BioWhitaker and cultured in EGM on collagen-coated plastic (Falcon) according to the supplier's instructions. The cells were cultured in medium in the presence of 100 U/ml penicillin and 100 μg/ml streptomycin at 37° C. in humidified air containing 10% CO2. Routinely, stocks were maintained in 75 cm^2 flasks and split at a 1:3 ratio when almost confluent. For experimental use, cells were seeded in appropriate plasticware such that confluence was established within 2-3 days and the cells were usually used 5-6 days after seeding. Prior to experimental use, confluent monolayers of cells were equilibrated in fresh medium for at least 2 hours prior to the start of the experiment. Compounds and agents that were only soluble in Me2SO were added to the culture medium of the cells in an equal volume of CO2-and temperature-equilibrated medium containing twice the finally required concentration of compound. […] Aqueous soluble agents were added at a 1:100 dilution directly to the cultures. In all cases, appropriate vehicle controls were performed and found to have no effect.
(§2) Whole cell lysates were prepared by aspiration of culture medium and immediately replacing it with boiling hot Laemmli sample buffer (Laemmli, U. K. (1970) Cleavage of structural proteins during the assembly of the head of bacteriophage T4. Nature 227, 680-685) supplemented with 5 mM EDTA.Na4. The samples were collected and heated at 100° C. for 5 minutes. Proteins were resolved by gel electrophoresis using 8% acrylamide slab gels (Hoefer SE 600 system, 16 cm) and the buffers described (Laemmli, 1970, loc cit). Gels were run overnight at 55 V. The gels were then equilibrated for 30 minutes in buffer at 4° C. containing 48 mM Tris, 39 mM glycine, 0.03% SDS (w/v) and 20% methanol (v/v), and electrotransferred to nitrocellulose filters (Hybond ECL, Amersham) at 4° C. After Ponceau S staining, the filters were blocked in PBS containing 1% (w/v) BSA and 0.05% (v/v) Tween-20. The filters were then incubated with primary antibody, rinsed and immunoreactive bands were detected using appropriate HRP-conjugated secondary antibody and chemiluminescence (ECL, Amersham).
Incubations were performed in triplicate and analyzed in parallel. The cells were extracted in Laemmli sample buffer and proteins were resolved by SDS-PAGE. […] Other experiments have shown that this is due to the loss of phosphate from the protein on serine and threonine residues.
(§3) Cell extracts were prepared and p120 (◯) and p100 (●) were detected by immunoblotting following SDS-PAGE, FIG. 2, Panel A. The same filter was also probed with the antibody recognizing the activated forms of p42 and p44 MAP kinase (arrowheads), FIG. 2, Panel B. Equal loading of lanes was verified as in FIG. 1. […] After 60 minutes of incubation, the effect was less apparent (FIG. 2A). The kinetics paralleled those of the increase in amount of activated MAP kinase (FIG. 2B).
(§4) Cell extracts were prepared and p120 (◯) and p100 (●) were detected by immunoblotting following SDS-PAGE, FIG. 3, Panel A. The same filter was also probed with the antibody recognizing the activated forms of p42 and p44 MAP kinase (arrowheads), FIG. 3, Panel B. Equal loading lanes was verified as in FIG. 1. […] The sensitivity of the increase in amount of activated MAP kinase paralleled that of the increase in p120/p100 mobility (FIG. 3B).
To determine which receptor(s) were responsible for the p120/p100 shift, the effects of placenta derived growth factor (P/GF), a VEGFR-1-specific ligand, were examined.
For orientation: In western blotting, separated proteins are transferred to a membrane and probed.

Assay [2] deals with β-catenin, p120 and p100. The assay can be described thus: PY20 anti-phosphotyrosine immunoprecipitation and immunoblotting. It is filed as cell-based, Human. The following applies: HUVEC; for β-catenin and p120/p100 in phosphotyrosine (PY20) immunoprecipitates: 2.6 nM VEGF or 10 μM histamine 5 minutes, 100 μM pervanadate 15 minutes.
Procedure: For p120/p100-specific and phosphotyrosine (PY20) protein immunoprecipitations, the cells were lysed in boiling SDSSB (1% SDS, 25 mM Hepes, 2 mM EDTA, 0.1 M NaCl, 25 mM NaF, 1 mM vanadate, pH 7.6). The lysate was then collected, heated at 100° C. for 5 minutes, cooled and diluted with four volumes of ice-cold TX buffer that contained 2.9% instead of 1% Triton X-100. Immunoprecipitation was performed as described for TX buffer extractions.
Some cells were treated for 15 minutes with 100 μM of the broad-spectrum tyrosine phosphatase inhibitor, pervanadate. Lysates of the cells were prepared by immediate extraction into a boiling solution of an SDS-based buffer containing kinase and phosphatase inhibitors, as described above.
These extracts were then immunoprecipitated with antiphosphotyrosine antibody PY20 and analyzed by immunoblotting with PY20 (FIG. 7D).
The subject of assay [3] is p42 and p44 MAP kinase. Description: immunoblot for activated forms of p42 and p44 MAP kinase in HUVEC. Format: cell-based, Human. The following applies: for amount of activated (phosphorylated) p42/p44 MAP kinase: 10 μM histamine, 200 nM phorbol 12,13 dibutyrate. Here is the method:
as §1, §2
To reveal other changes in VEGF-stimulated signalling processes, the filters were also probed with an antibody recognizing the activated forms of p42 and p44 MAP kinase.
as §3, §4
To determine which receptor(s) were responsible for the p120/p100 shift, the effects of placenta derived growth factor (P/GF), a VEGFR-1-specific ligand, were examined. Confluent monolayers of HUVECs were incubated for 5 minutes in the absence (lane labelled C) or presence of P/GF at 100 (P/GF100) or 1000 ng/ml (P/GF1000). […] In another experiment, the cells were preincubated for 30 minutes in the absence (−) or presence (+) of 5 μM of the VEGFR-2 inhibitor SU5416. […] In all cases, cell extracts were prepared and p120 (◯) and […] (●) were detected by immunoblotting following SDS-PAGE, FIGS. 4A and 4C. […]

The test system of assay [4] is HUVEC. The following applies: 2.6 nM VEGF, 5 minutes. Here is the method: Confluent monolayers of cells were fixed at room temperature for 15 minutes in 3% paraformaldehyde made up in PBS. Fixed cells were rinsed and then permeabilized by incubation with 0.5% Triton X-100 in PBS for 30 minutes. All antibodies were diluted in PBS containing 10% FCS, 0.1 M lysine, 0.3% Triton-X-100 and 0.02% azide. Incubation with antibody recognizing junction-associated protein was at 4° C. overnight followed by incubation with mouse or rabbit anti-phosphotyrosine antibody for 2 hours at room temperature. Secondary antibodies recognizing mouse and rabbit IgG conjugated to Cy3 or fluorescein, respectively, were applied together for 1 hour at room temperature. After rinsing, the samples were mounted under Citifluor and viewed with epifluorescence on a Nikon Eclipse E800 microscope. Photographs were taken using Kodak T-MAX film (400 ASA).
After 5 minutes, the cells were fixed and then stained. […] All images were from similarly timed exposures. Bar, 20 μm.

The subject of assay [5] is p120 and p100. To be noted: HUVEC, 2.6 nM VEGF, 5 minutes.
Assay [6] concerns cadherin/catenin complex. To be noted: HUVEC, 2.6 nM VEGF, 5 minutes.
Procedure: For analysis of the cadherin and its association with catenins, extraction and immunoprecipitations were performed at 4° C. Cultures were briefly rinsed with ice-cold PBS and then lysed in TX buffer (1% (v/v) Triton X-100, 25 mM Hepes, 2 mM EDTA, 0.1 M NaCl, 25 mM NaF, 1 mM vanadate, pH 7.6 (adjusted with NaOH), 1 mM PMSF, 10 μg/ml soybean trypsin inhibitor, 0.1 U/ml α2-macroglobulin, 10 μg/ml leupeptin). The cells were extracted into lysis buffer for 10-15 minutes and then collected after scraping the dish. The lysates were centrifuged at 14,000×g for 20 minutes. The supernatant was precleared with protein A-Sepharose (Pharmacia) for 1 hour and then incubated with primary antibody for 1 hour followed by a further 1 hour with protein A-Sepharose together with rabbit anti-mouse antibodies. After five washes in lysis buffer, immune complexes were dissociated by addition of Laemmli sample buffer followed by heating at 100° C. for 5 minutes. Protein analysis was by SDS-PAGE and immunoblotting as described above.
The subject of assay [7] is p120 and p100. To be noted: HUVEC, 5 minutes; 2.6 nM VEGF, 10 μM histamine, 200 nM PDB.
Procedure: [^32P]Phosphate labelling was performed using Puck's Saline A (P-2917; Sigma, supplemented with 10 mM Hepes (Gibco), 2 mM glutamine (Gibco), 1 mM CaCl2, 1 mM MgSO4 and 0.2% (v/v) foetal calf serum. Cultures were rinsed twice with medium and then incubated with the same medium containing 100 μCi/ml of [^32P]phosphate. Labelling was for 2 hours at 37° C. in humidified air with ambient CO2.
For phosphorylation analysis, cultures of HUVECs were labelled with [^32P]orthophosphate. After appropriate treatment, the cultures were lysed in boiling SDSSB and immunoprecipitated with the anti-p120/p100 antibody as described. For quantitation of [^32P]phosphate:protein, each immunoprecipitation was from protein extracted from ˜10 cm^2 of confluent culture. For the phosphoaminoacid analysis and Cleveland maps, protein from ˜60 cm^2 of confluent cells was used per immunoprecipitation. After separation by SDS-PAGE, for quantitation of [^32P]phosphate and p120/p100, protein was transferred to nitrocellulose and [^32P]phosphate incorporated into p120/p100 was detected by autoradiography. […] The area of filter containing p120 or p100 was detected by autoradiography, excised, and protein was acid hydrolysed to release phosphoaminoacids. These were then separated in two dimensions by high voltage electrophoresis at pH 1.9 and pH 3.5 and detected by autoradiography (Boyle et al., 1991). […]
The mark [8] stands for this setting: HUVEC preincubated 30 minutes with 5 μM, then 2.6 nM VEGF 5 minutes.
[9] abbreviates: HUVEC preincubated 30 minutes with 5 μM, then 10 μM histamine 5 minutes.
Setting [10] is: HUVEC, 100 μM pervanadate, 15 minutes.
[11] abbreviates: HUVEC, 5 minutes, P/GF at 100 or 1000 ng/ml.

For `NCCc1c[nH]cn1` [Histamine, reference compound], in assay [1] (HUVEC, 5 minutes, 2.6 nM VEGF), the “p120/p100 electrophoretic mobility (band shift)” value is listed as “effective; also recorded: increased electrophoretic mobility; also recorded: produced effects”. The “β-catenin and p120/p100 in phosphotyrosine (PY20) immunoprecipitates” value (“β-catenin and p120/p100” below) in assay [2] is given as “did not reveal any hint”. In addition, the “amount of activated (phosphorylated) p42/p44 MAP kinase” value (“amount of activated” for short) in assay [3] (HUVEC, 5 minutes, 2.6 nM VEGF) is “increased the amounts of phospho-MAP kinases”; in assay [3] (HUVEC, 5 minutes, 2.6 nM VEGF, listed as histamine), “effective; also recorded: produced effects”.

On to `CCCC(=O)O[C@@H]1[C@@H](C)[C@@]2(O)[C@@H](C=C(CO)C[C@]3(O)C(=O)C(C)=C[C@@H]23)[C@@H]2C(C)(C)[C@]12OC(=O)CCC` [PDB, Phorbol-12,13-dibutyrate, reference compound], for which the “p120/p100 electrophoretic mobility (band shift)” value in assay [1] (HUVEC, 5 minutes, 2.6 nM VEGF) was “increased electrophoretic mobility”. Moreover, the “amount of activated” value in assay [3] (HUVEC, 5 minutes, 2.6 nM VEGF) is given as “without effect”.

With `Cc1cc(C)c(/C=C2\C(=O)Nc3ccccc32)[nH]1` [SU5416, reference compound], the “effect on VEGF-stimulated increase in p120/p100 mobility” value in assay [1] (setting [8]) is given as “blocked”. Besides, in assay [1] (setting [9]), the “effect on histamine-stimulated mobility shift in p120/p100” value is given as “did not block”. The “effect on VEGF-stimulated activation of MAP kinase” value in assay [3] (setting [8]) is given as “blocked”. For the same molecule, the “effect on histamine-stimulated activation of MAP kinase” value in assay [3] (setting [9]) is given as “did not block”.

As to VEGF, in assay [4], the “colocalization of altered phosphotyrosine staining with β-catenin staining” value is “did not colocalize”, the “phosphotyrosine striations within the cells” value is given as “increased” and the vinculin staining result is “appearance of vinculin-positive striations”. Further, the “phosphotyrosine in p120 and p100” value in assay [5] was “not detected”. In addition, the “amount of phosphoserine and phosphothreonine in p120 and p100” value in assay [5] (10 μM histamine, 200 nM PDB) was “decreased”. In assay [6], the “association of catenins with cadherins (VE-cadherin, N-cadherin, α, β and γ catenin, p120, p100)” value is on record as “no effect on association of any members of the complex”. In assay [1] (HUVEC, 2.6 nM (100 ng/ml) VEGF), the “time at which increase in mobility of p120 and p100 was observed” value is ≤ 2 min; the “time for which increase in mobility of p120 and p100 was sustained” value is recorded as “up to 30 minutes”. Moreover, the “effect on p120/p100 mobility after 60 minutes of incubation” value in assay [1] (HUVEC, 2.6 nM VEGF, 60 minutes) is “less apparent”. Besides, the “lowest concentration with observed effect on p120/p100 mobility” value in assay [1] (HUVEC, 5 minutes) is 0.1 nM. For the same molecule, in assay [1] (HUVEC, 5 minutes, 2.6 nM VEGF), the “p120/p100 electrophoretic mobility (band shift)” value was “migrate as faster, tighter bands; also recorded: effective; also recorded: increased electrophoretic mobility; also recorded: produced effects”. For the same molecule, in assay [7], the “phosphate incorporation into 30 kDa and 17 kDa V8 cleavage products of p120 and p100” value is listed as “substantially decreased”. In assay [2] (2.6 nM VEGF, 5 minutes), the “focal contact protein tyrosine phosphorylation (PY20 immunoprecipitation)” value was “increased”. Besides, in assay [2], the “β-catenin and p120/p100” value is “did not reveal any hint”. In addition, the “kinetics of increase in activated MAP kinase relative to p120/p100 mobility” value in assay [3] (HUVEC, 2.6 nM VEGF, time course) was “paralleled”. For the same molecule, in assay [3] (HUVEC, 5 minutes, indicated concentrations of VEGF), the “sensitivity of increase in activated MAP kinase relative to p120/p100 mobility” value is “paralleled”. Moreover, the “amount of activated” value in assay [3] (HUVEC, 5 minutes, 2.6 nM VEGF) is “clearly stimulated an increase; also recorded: effective; also recorded: produced effects”.

In the case of pervanadate [reference compound], in assay [1] (setting [10]), the “mobility of p120/p100” value was “did not affect the mobility”. Further, the “β-catenin and p120/p100” value in assay [2] is recorded as “detected”. Moreover, the “activation of MAP kinase” value in assay [3] (setting [10]) is “did lead to activation of MAP kinase”.

B1: P/GF: placenta derived growth factor, a VEGFR-1-specific ligand, from R & D Systems (protein, UniProt P49763 19-221, looked up)
Placenta growth factor: LPAVPPQQWALSAGNGSSEVEVVPFQEVWGRSYCRALERLVDVVSEYPSEVEHMFSPSCVSLLRCTGCCGDENLHCVPVETANVTMQLLKIRSGDRPSYVELTFSQHVRCECRHSPGRQSPDMPGDFRADAPSFLPPRRSLPMLFRMEWGCALTGSQSAVWPSSPVPEEIPRMHPGRNGKKQQRKPLREKMKPERCGDAVPRR
B1: the “mobility shift in p120/p100” value in assay [1] (setting [11]) is listed as “failed to stimulate a mobility shift”. For the same molecule, the “activation of MAP kinase” value in assay [3] (setting [11]) is recorded as “did not lead to activation of MAP kinase”.
